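Values below derive from 48-hour exposures of cells grown in 96-well plates, with endpoints linearly interpolated between the two concentrations bracketing the appropriate inhibition level. At the GI50, growth is halved. TGI: concentration producing complete growth inhibition.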
Experiments:
Test in all cases: NCI tumour cell line growth inhibition, 48 h
[1] = test system: NCI-H23 lung
[2] = test system: UO-31 renal
[3] = test system: HT29 colon
[4] = test system: U251 CNS
[5] = test system: T-47D breast
[6] = test system: OVCAR-4 ovarian
[7] = test system: NCI-H226 lung
[8] = test system: HL-60(TB) leukemia
[9] = test system: SK-OV-3 ovarian
[10] = test system: COLO 205 colon

Row | SMILES | GI50 [1] | TGI [1] | GI50 [2] | TGI [2] | GI50 [3] | TGI [3] | GI50 [4] | TGI [4] | GI50 [5] | TGI [5] | GI50 [6] | TGI [6] | GI50 [7] | TGI [7] | GI50 [8] | TGI [8] | GI50 [9] | TGI [9] | GI50 [10] | TGI [10]
1 | Cc1cc2nc3c4ccc(Br)cc4n(CCN(C)C)c3nc2cc1C | 1.5 µM | 3.47 µM | 0.561 µM | 9.5 µM | 0.664 µM | 2.89 µM | 1.47 µM | 4.44 µM | 2.05 µM | 6.6 µM | 1.62 µM | 7.49 µM | 2.46 µM | 11.1 µM | 1.45 µM | 5.68 µM | 2.65 µM | 12.7 µM |  | 
2 | CN1CCN(c2ccc3nc(-c4ccc(OCCCCN5CCN(CCCCN6C(=O)c7cccc8cccc(c78)C6=O)CC5)cc4)[nH]c3c2)CC1 | > 100 µM | > 100 µM | 58.4 µM | > 100 µM | 86.4 µM | > 100 µM | 27.9 µM | > 100 µM | 31.2 µM | > 100 µM | > 100 µM | > 100 µM | 37.6 µM | > 100 µM | 25.1 µM | > 100 µM | > 100 µM | > 100 µM | 96.8 µM | > 100 µM
3 | C=CC(C)(O)CC/C=C(\CO)C(=O)OC1C(C)OC(O[C@](C)(C=C)CC/C=C(\CO)C(=O)O[C@H]2C[C@@]3(C(=O)OC4OC(CO)C(O)C(O)C4OC4OC(C)C(OC5OC(CO)C(O)C5O)C(OC5OC(CO)C(O)C(O)C5O)C4O)C(CC2(C)C)C2=CCC4[C@@]5(C)CC[C@H](OC6OC(COC7OC(C)C(O)C(O)C7OC7OCC(O)C(O)C7O)C(O)C(O)C6NC(C)=O)C(C)(C)C5CC[C@@]4(C)[C@]2(C)C[C@H]3O)C(O)C1O (stereo partly specified) | 2.01 µM | 7.49 µM | 0.234 µM | 0.966 µM | 1.42 µM | 6.06 µM | 0.101 µM | 0.45 µM | 0.155 µM | 0.739 µM | 0.11 µM | 0.47 µM | 0.363 µM | 1.98 µM | 0.13 µM | 2.53 µM | 0.203 µM | 0.794 µM | 0.168 µM | 0.927 µM
4 | NS(=O)(=O)c1ccc(NC(=O)c2cccc(NC3=C(Cl)C(=O)N(Cc4ccccc4)C3=O)c2)cc1 |  |  | 2.27 µM | 6.4 µM | 33.3 µM | > 100 µM | 5.18 µM | 19.6 µM | 33.7 µM | > 100 µM | 35.7 µM | > 100 µM | 8.33 µM | 46.2 µM | 2.02 µM | 6.01 µM | 26.9 µM | 77.5 µM | 22.6 µM | 85.8 µM
5 | O=C(/C=C/c1cccc2ccccc12)Nc1ncc(Cc2ccccc2)s1 | 1.58 µM | > 100 µM | 1.39 µM | 3.98 µM | 1 µM | > 47 µM | 0.818 µM | 4.67 µM | 0.894 µM | > 100 µM | 2.12 µM | 5.16 µM | 1.37 µM | > 100 µM | 0.669 µM | 3.58 µM | 1.71 µM | > 29.9 µM | 1.48 µM | > 100 µM
6 | COc1ccc(-c2nc(C(=O)c3ccccc3)n(CC(=O)c3ccc(Cl)cc3)c2-c2ccc(OC)cc2)cc1 | > 100 µM | > 100 µM | > 100 µM | > 100 µM | > 100 µM | > 100 µM | > 100 µM | > 100 µM | > 100 µM | > 100 µM | > 100 µM | > 100 µM | > 100 µM | > 100 µM | 46 µM | > 100 µM | > 100 µM | > 100 µM | > 100 µM | > 100 µM

From PubChem BioAssay (NCI)
